Entries after “also recorded” stand apart in the source; their conditions may differ.

The subject of one series is RA patients. The experiment in a line: Clinical study in rheumatoid arthritis patients (ACR responses, ANC). It is filed as in vivo, human. As to the method:
However, the greatest inhibition appeared to be observed following 200 mg BID dosing. Also noteworthy is that the 100 mg QD dose had less TPO induced pSTAT3 inhibition than placebo.

Series [1] is described as follows: Fecal concentration and excretion after oral sustained release dose. The class given is in vivo, human. As to the method:
The method used for analyzing Compound 1 in human feces is a qualified method. The human fecal samples are collected in 1:1 homogenate at the clinical site [1 part of water (mL): 1 part of faces(g)]. Prior to sample analysis, additional water is added to the sample homogenate to achieve the final ratio of feces to water at 1:19 as calibration standard and QC samples. The final homogenates are processed and analyzed with calibration standards and QC samples. For human homogenate analysis, briefly, 100 μL of the feces homogenate (blanks, QC and study samples) is placed in a test tube. After an aliquot of 20 μL of internal standard is added and mixed, an aliquot of 200 μL of 0.1 M NaHCO3 is added and vortexed. Then 2 mL of MtBE is added and the samples are vortexed. After centrifugation, MtBE layer is transferred to a clean test tube. The samples were then dried under nitrogen at approximately 40° C. An aliquot of 1 mL of reconstitution solution (acetonitrile:water, 50:50, v/v) is then added to each sample and vortexed. Then 10 μL of the sample was diluted with 3 mL reconstitution solution in a clean test tube. The sample is transferred to an autosampler vial and 10 μL is injected into an LC-MS/MS for analysis. The LC-MS/MS analysis is carried out with an AB Sciex API 4000 or API 4000 QTrap mass spectrometer coupled with an HPLC pump and an autosampler. The chromatographic separation is achieved on a Agilent Eclipse Plus C8 50×4.6 mm, 5 μm HPLC column, with gradient elution. The mass spectrometer is operated in positive ESI mode. MRM transition is m/z 554.3→186.2 for Compound 1 and m/z 558.4→190.2 for the internal standard. Peak-area integrations are performed using the Analyst software and concentrations are calculated in Watson LIMS. Concentrations of human feces homogenates are calculated using 8 concentration levels ranging from 1 μg/g to 300 μg/g (1.8 μM to 542 μM) with weighted linear regression, according to the following formula: y=ax+b(weighting factor=1/x^2)
where x=Compound 1 concentration in μg/g in human feces homogenates, y=Peak-area ratio, a=Slope, and b=Intercept.
Methods: Compound 1 concentrations in plasma and feces (colonic surrogate) were determined following a single sustained release 25 mg oral dose (see, e.g., Example B, 25 mg SR composition). Compound 1 concentrations in plasma following a single 100 mg dose were also determined in a separate study (see, e.g., Example C for measuring concentrations of Compound 1 in plasma). Ex vivo study: Colon tissue samples from healthy and UC subjects (2/group) were mounted on a vertical Ussing diffusion chamber. [^14C]Compound 1 was applied to the apical side of the chamber at 100 and 1000 nM and incubated for 1 h. Samples were collected from the donor and receiver sides for determination of Compound 1 concentration. The colonic tissue was snap frozen for quantitative autoradiography.

The subject of series [2] is TNBS-induced colitis in BALB/c mice. The experiment in a line: TNBS-induced colitis model in mice. It is filed as in vivo, mouse. The source says: Preclinical models of IBD were established in BALB/c mice by intracolonic injection of 2,4,6-trinitrobenzene sulfonic acid (TNBS) or 4-ethoxymethylene-2-phenyl-2-oxazolin-5-one (oxazolone) to trigger an immune response, as described below. Body weight, stool consistency and fecal blood were scored. Additional readouts included colon weight to length ratio and histological evaluation. Blood was collected for pharmacokinetic analysis.
Male BALB/c mice were purchased (Charles River Laboratories) and distal colitis was induced by intracolonic instillation of TNBS (2,4,6-trinitrobenzenesulfonic acid solution, 1 mg in 0.1 mL 50% ethanol). Compound 1 treatment was administered at 30 mg/kg by oral gavage (PO) or 3 mg/kg by intracolonic injection (IC) twice daily (BID). Diarrhea was quantified on a 0-3 rating scale, (0=normal; 1=soft but still formed; 2=very soft; 3=diarrhea) on days 3 to 5 post TNBS sensitization.

Series [3] concerns oxazolone-induced colitis in BALB/c mice. The experiment in a line: Mouse oxazolone-induced colitis model. It is filed as in vivo.

In the case of `N#CCC1(n2cc(-c3ncnc4[nH]ccc34)cn2)CN(C2CCN(C(=O)c3ccnc(C(F)(F)F)c3F)CC2)C1` [Compound 1, {1-{1-[3-Fluoro-2-(trifluoromethyl)isonicotinoyl]piperidin-4-yl}-3-[4-(7H-pyrrolo[2,3-d]pyrimidin-4-yl)-1H-pyrazol-1-yl]azetidin-3-yl}acetonitrile], the “ACR20, ACR50, and ACR70 responses versus placebo” value in the series with RA patients (600 mg QD, Day 84 visit) is “statistically significant differences in ACR20, ACR50, and ACR70 responses”. In addition, in the series with RA patients (RA patients), the “decreased ANC” value is given as “several cases of decreased ANC but no dose-dependent trend was observed”. Besides, in series [1] (humans, oral), the “administered dose excreted intact as parent compound in the feces” value is ~30%. The “Maximal fecal concentration, geometric mean” value in series [1] (single 25 mg SR dose, feces 0-24 hours) was found to be 85.5 nM. The “Maximal fecal concentration, Mean” value in series [1] (single 25 mg SR dose, feces 0-24 hours, SD 41.4 nM) was found to be 93.4 nM. For the same compound, the “patients with maximum fecal concentrations exceeding the in vitro IC50 for JAK1 inhibition (58 nM)” value in series [1] (single 25 mg dose) is given as “eight of twelve”. Further, in series [1] (sustained release formulation), the “dose eliminated as unchanged Compound 1 in the feces” value turned out to be 27.1%. In series [2] (3 mg/kg IC BID), the fecal blood score result was “significant (p<0.05) decrease in fecal blood score” and the “total colonic macroscopic damage” value is recorded as “ameliorated total colonic macroscopic damage”. For the same compound, the “disease severity / disease recovery” value in series [2] (3 mg/kg intracolonic BID) is recorded as “significantly reduced disease severity; also recorded: highly efficacious in enhancing disease recovery; also recorded: more rapidly induced recovery; also recorded: highly efficacious in TNBS-induced colitis”. Also, the “disease severity / disease score recovery” value in series [2] (30 mg/kg PO BID, vs vehicle) is reported as “significantly reduced disease severity; also recorded: accelerated disease score recovery”. The stool consistency entry in series [2] (30 mg/kg PO or 3 mg/kg intracolonic, twice daily, vs control) is “significantly (p<0.05) improved stool consistency”. Besides, the colon shortening entry in series [3] (3 mg/kg IC BID) is reported as “significantly ameliorated colon shortening; also recorded: significantly (p<0.05) reduced colon shortening”. Besides, in series [3] (30 mg/kg BID oral), the macroscopic tissue pathology result is reported as “ameliorating macroscopic tissue pathology”; the “normalized colon weight (inflammatory swelling)” value is listed as “reducing normalized colon weight”; the “recovery from diarrhea and rectal bleeding (symptoms)” value is “reduces symptoms; also recorded: efficacious in accelerating recovery from diarrhea and rectal bleeding”. Moreover, in series [3] (30 mg/kg PO BID), the colon shortening entry is given as “significantly ameliorated colon shortening; also recorded: significant (p<0.05) reduction in colon shortening”. Also, the “stool consistency and fecal occult blood scoring” value in series [3] (twice daily, orally or intracolonically, vs vehicle) is “significantly ameliorated stool consistency and reduced fecal occult blood scoring”.
